target: T1, human liver GK (Homo sapiens, UniProt P35557); assay: GK activation test; format: biochemical; conditions: test compound concentration needed to activate 50% of maximum activation ability; 4 mM 14C-labeled glucose, 2 mM ATP, room temperature, 20 minutes
T1 construct: GST (glutathione S-transferase) (N); made in house; host or cells: E. coli
T1 sequence (P35557 1-466 isoform P35557-2): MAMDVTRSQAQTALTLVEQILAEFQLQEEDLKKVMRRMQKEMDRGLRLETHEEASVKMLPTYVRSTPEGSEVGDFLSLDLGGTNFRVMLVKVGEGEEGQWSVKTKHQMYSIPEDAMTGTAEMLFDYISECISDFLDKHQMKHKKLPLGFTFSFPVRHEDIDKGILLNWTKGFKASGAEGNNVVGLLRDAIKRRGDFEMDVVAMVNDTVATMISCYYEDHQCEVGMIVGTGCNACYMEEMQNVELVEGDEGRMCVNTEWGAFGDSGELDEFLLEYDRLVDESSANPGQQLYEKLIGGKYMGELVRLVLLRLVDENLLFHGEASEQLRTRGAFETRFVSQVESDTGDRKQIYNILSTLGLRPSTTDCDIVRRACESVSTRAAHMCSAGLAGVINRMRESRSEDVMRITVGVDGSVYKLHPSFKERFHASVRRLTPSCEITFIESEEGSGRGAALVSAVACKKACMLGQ
Experimental: The GK activation test for the test compounds was performed by the method of Irwin A. Rose et al. (J. Biol. Chem. 1964 January; 239:12-7) with partial modifications.
The enzyme source used in this assay, human liver GK, was expressed in E. coli as a fusion protein with GST (glutathione S-transferase) added to the amino terminus and was purified using Glutathione Sepharose 4B (Amersham Biosciences).
The test was carried out using flat-bottom 96-well plates (Sumitomo Bakelite Co., Ltd.). A solution of the test compound in dimethyl sulfoxide (DMSO) and DMSO as a control were added to each well of the plates at a final DMSO concentration of 1%. 25 mM Hepes-KOH (pH=7.1), 25 mM KCl, 2 mM MgCl2, 2 mM ATP, 4 mM ^14C-labeled glucose (Muromachi Yakuhin) and 1 mM DTT (dithiothreitol) were further added at the indicated final concentrations, respectively. Finally, human liver GK was added at 0.24 microgram per well and the reaction was started. The reaction was carried out at room temperature.
After 20 minutes, AG1-X4 resin (BioRad) suspended in 25 mM Hepes-KOH (pH=7.1) was added and the reaction product, labeled glucose 6-phosphate, was allowed to bind thereto. The whole volume was transferred to MultiScreen plates (Millipore) and the resin was washed with water. Thereafter, the labeled glucose 6-phosphate binding to the resin was eluted with a 0.5 M NaCl solution. The labeling activity of the eluted labeled glucose 6-phosphate was measured as an index of GK activity.
The GK activity maximally activated by the test compound was described as maximum activation ability, and the test compound concentration needed to activate 50% of that ability was described as EC50.

`CC(C)(C)c1ccc(C(C[C@H]2CCC(=O)N2)c2ccc(C(F)(F)F)c(=O)[nH]2)cc1` (single isomer, unassigned) [Example 4-314] and `Cc1cc(C(C[C@H]2CCC(=O)N2)c2ccc(C3CC3)c(=O)[nH]2)ccc1C(F)(F)F` (single isomer, unassigned) [Example 4-330] fall in the same range of EC50: 0.5 to 3 µM for the first, 0.5 to 3 µM for the second.

`CC(C)(C)c1ccc(C(C[C@H]2CCC(=O)N2)c2ccc(C(F)(F)F)c(=O)[nH]2)cc1` (single isomer, unassigned) [Example 4-315] and `Cc1cc(C(C[C@H]2CCC(=O)N2)c2ccc(C3CC3)c(=O)[nH]2)ccc1C(F)(F)F` (single isomer, unassigned) [Example 4-331] fall in the same range of EC50: 3 to 10 µM for the first, 3 to 10 µM for the second.

`O=C1CC[C@H](CC(c2ccc(C3CC3)cc2)c2ccc(Cl)c(=O)[nH]2)N1` (single isomer, unassigned) [Example 4-316] and `Cc1ccc(C(C[C@H]2CCC(=O)N2)c2ccc(Cl)c(=O)[nH]2)cc1` (single isomer, unassigned) [Example 4-318] fall in the same range of EC50: 3 to 10 µM for the first, 3 to 10 µM for the second.

`O=C1CC[C@H](CC(c2ccc(C3CC3)cc2)c2ccc(Cl)c(=O)[nH]2)N1` (single isomer, unassigned) [Example 4-317] and `O=C1CCC(CC(c2ccc(C(F)F)cc2)c2ccc(C3CC3)c(=O)[nH]2)N1` (single isomer, unassigned) [Example 4-340, 3-Cyclopropyl-6-[1-[4-(difluoromethyl)phenyl]-2-(5-oxopyrrolidin-2-yl)ethyl]pyridin-2(1H)-one] fall in the same range of EC50: 0.5 to 3 µM for the first, 0.5 to 3 µM for the second.

`CC(C)c1ccc(C(C[C@H]2CCC(=O)N2)c2ccc(C3CC3)c(=O)[nH]2)cc1Cl` (single isomer, unassigned) [Example 4-320] and `CC(C)Oc1ccc(C(C[C@H]2CCC(=O)N2)c2ccc(C3CC3)c(=O)[nH]2)cc1Cl` (single isomer, unassigned) [Example 4-322] fall in the same range of EC50: 0.01 to 0.5 µM for the first, 0.01 to 0.5 µM for the second.

First: CC(C)c1ccc(C(C[C@H]2CCC(=O)N2)c2ccc(C3CC3)c(=O)[nH]2)cc1Cl (single isomer, unassigned) [Example 4-321]
Second: CC(C)Oc1ccc(C(C[C@H]2CCC(=O)N2)c2ccc(C3CC3)c(=O)[nH]2)cc1Cl (single isomer, unassigned) [Example 4-323]
The EC50 of the first is lower: 0.5 to 3 µM for the first, 3 to 10 µM for the second. The first is the more potent here.

First: CCc1ccc(C(C[C@H]2CCC(=O)N2)c2ccc(Cl)c(=O)[nH]2)cc1Cl (single isomer, unassigned) [Example 4-324]
Second: CCc1ccc(C(C[C@H]2CCC(=O)N2)c2ccc(C3CC3)c(=O)[nH]2)cc1Cl (single isomer, unassigned) [Example 4-336]
The EC50 of the first is higher: 0.5 to 3 µM for the first, 0.01 to 0.5 µM for the second.

First: CCc1ccc(C(C[C@H]2CCC(=O)N2)c2ccc(Cl)c(=O)[nH]2)cc1Cl (single isomer, unassigned) [Example 4-325]
Second: CCc1ccc(C(C[C@H]2CCC(=O)N2)c2ccc(C3CC3)c(=O)[nH]2)cc1Cl (single isomer, unassigned) [Example 4-337]
The EC50 of the first is higher: 3 to 10 µM for the first, 0.5 to 3 µM for the second. The second is the more potent here.

`COc1ccc(C(C[C@H]2CCC(=O)N2)c2ccc(C3CC3)c(=O)[nH]2)cc1Cl` (single isomer, unassigned) [Example 4-326] and `O=C1CC[C@H](CC(c2ccc(OC(F)F)c(Cl)c2)c2ccc(C3CC3)c(=O)[nH]2)N1` (single isomer, unassigned) [Example 4-356] fall in the same range of EC50: 0.01 to 0.5 µM for the first, 0.01 to 0.5 µM for the second.

`COc1ccc(C(C[C@H]2CCC(=O)N2)c2ccc(C3CC3)c(=O)[nH]2)cc1Cl` (single isomer, unassigned) [Example 4-327] and `O=C1CC[C@H](CC(c2ccc(OC(F)F)c(Cl)c2)c2ccc(C3CC3)c(=O)[nH]2)N1` (single isomer, unassigned) [Example 4-357] fall in the same range of EC50: 3 to 10 µM for the first, 3 to 10 µM for the second.

`CCOc1ccc(C(C[C@H]2CCC(=O)N2)c2ccc(C3CC3)c(=O)[nH]2)cc1` (single isomer, unassigned) [Example 4-328] and `CCCOc1ccc(C(C[C@H]2CCC(=O)N2)c2ccc(C3CC3)c(=O)[nH]2)cc1` (single isomer, unassigned) [Example 4-352] fall in the same range of EC50: 0.5 to 3 µM for the first, 0.5 to 3 µM for the second.

`O=C1CC[C@H](CC(c2ccc(C3CC3)c(=O)[nH]2)c2ccc(C(F)(F)F)cc2F)N1` (single isomer, unassigned) [Example 4-332] and `O=C1CC[C@H](CC(c2ccc(C3CC3)c(=O)[nH]2)c2ccc(Cl)cc2F)N1` (single isomer, unassigned) [Example 4-334] fall in the same range of EC50: 0.5 to 3 µM for the first, 0.5 to 3 µM for the second.

`O=C1CC[C@H](CC(c2ccc(C3CC3)c(=O)[nH]2)c2ccc(C(F)(F)F)cc2F)N1` (single isomer, unassigned) [Example 4-333] and `O=C1CC[C@H](CC(c2ccc(C3CC3)c(=O)[nH]2)c2ccc(Cl)cc2F)N1` (single isomer, unassigned) [Example 4-335] fall in the same range of EC50: 3 to 10 µM for the first, 3 to 10 µM for the second.

First: COCCCc1ccc(C(C[C@H]2CCC(=O)N2)c2ccc(Cl)c(=O)[nH]2)cc1 (single isomer, unassigned) [Example 4-338]
Second: O=C1CCC(CC(c2ccc(C(F)F)cc2)c2ccc(C3CC3)c(=O)[nH]2)N1 (single isomer, unassigned) [Example 4-341, 3-Cyclopropyl-6-[1-[4-(difluoromethyl)phenyl]-2-(5-oxopyrrolidin-2-yl)ethyl]pyridin-2(1H)-one]
The EC50 of the first is lower: 0.5 to 3 µM for the first, 3 to 10 µM for the second.

`O=C1CC[C@H](CC(c2ccc(S(=O)(=O)C3CC3)c(Cl)c2)c2ccc(C3CC3)c(=O)[nH]2)N1` (single isomer, unassigned) [Example 4-342] and `O=C1CC[C@H](CC(c2ccc(OC3CC3)c(Cl)c2)c2ccc(C3CC3)c(=O)[nH]2)N1` (single isomer, unassigned) [Example 4-344] fall in the same range of EC50: 0.01 to 0.5 µM for the first, 0.01 to 0.5 µM for the second.

`O=C1CC[C@H](CC(c2ccc(S(=O)(=O)C3CC3)c(Cl)c2)c2ccc(C3CC3)c(=O)[nH]2)N1` (single isomer, unassigned) [Example 4-343] and `O=C1CC[C@H](CC(c2ccc(OC3CC3)c(Cl)c2)c2ccc(C3CC3)c(=O)[nH]2)N1` (single isomer, unassigned) [Example 4-345] fall in the same range of EC50: 3 to 10 µM for the first, 3 to 10 µM for the second.

Compared with `COc1cc(F)c(C(C[C@H]2CCC(=O)N2)c2ccc(C3CC3)c(=O)[nH]2)cc1Cl` (single isomer, unassigned) [Example 4-346], `CCOc1ccc(C(C[C@H]2CCC(=O)N2)c2ccc(C3CC3)c(=O)[nH]2)cc1F` (single isomer, unassigned) [Example 4-354] is higher in EC50: 0.01 to 0.5 µM for the first, 0.5 to 3 µM for the second. The first is the more potent here.

First: COc1cc(F)c(C(C[C@H]2CCC(=O)N2)c2ccc(C3CC3)c(=O)[nH]2)cc1Cl (single isomer, unassigned) [Example 4-347]
Second: CC(C)Oc1ccc(C(C[C@H]2CCC(=O)N2)c2ccc(C3CC3)c(=O)[nH]2)cc1F (single isomer, unassigned) [Example 4-350]
The EC50 of the first is higher: 3 to 10 µM for the first, 0.01 to 0.5 µM for the second.

`CC(C)Oc1ccc(C(C[C@H]2CCC(=O)N2)c2ccc(C3CC3)c(=O)[nH]2)cc1` (single isomer, unassigned) [Example 4-348] and `CC(C)(C)c1ccc(C(CCN2CCOC2=O)c2ccc(Cl)c(=O)[nH]2)cc1` (single isomer, unassigned) [Example 6-29, 6-[1-(4-tert-Butylphenyl)-3-(2-oxo-1,3-oxazolidin-3-yl)propyl]-3-chloropyridin-2(1H)-one] fall in the same range of EC50: 0.5 to 3 µM for the first, 0.5 to 3 µM for the second.

First: CSc1ccc(/C(=C\C2CCCC2)c2ccc(Cl)c(=O)[nH]2)cc1 [Example 1-1, 3-Chloro-6-{(E)-2-Cyclopentyl-1-[4-(methylsulfanyl)phenyl]ethenyl}pyridin-2(1H)-one]
Second: CSc1ccc(/C(=C\C2CCCC2)c2ccc(C(C)C)c(=O)[nH]2)cc1 [Example 1-3, 6-{(E)-2-Cyclopentyl-1-[4-(methylsulfanyl)phenyl]ethenyl}-3-(propan-2-yl)pyridin-2(1H)-one]
The EC50 of the first is higher: 0.5 to 3 µM for the first, 0.01 to 0.5 µM for the second. The second is the more potent here.

First: CS(=O)(=O)c1ccc(/C(=C\C2CCCC2)c2ccc(Cl)c(=O)[nH]2)cc1 [Example 1-2, 3-Chloro-6-{(E)-2-Cyclopentyl-1-[4-(methylsulfonyl)phenyl]ethenyl}pyridin-2(1H)-one]
Second: CC(C)c1ccc(/C(=C/C2CCCC2)c2ccc(S(C)(=O)=O)cc2)[nH]c1=O [Example 1-4, 6-{(E)-2-Cyclopentyl-1-[4-(methylsulfonyl)phenyl]ethenyl}-3-(propan-2-yl)pyridin-2(1H)-one]
The EC50 of the first is higher: 0.5 to 3 µM for the first, 0.01 to 0.5 µM for the second. The second is the more potent here.

Reference: patent US8822503B2, “2-pyridone compounds” (Taisho Pharmaceutical Co., Ltd, priority 2009, dated 2014)
